In paper PMC9107766, “Inhibitory effect of lignin on the hydrolysis of xylan by thermophilic and thermolabile GH11 xylanases” (Biotechnology for Biofuels and Bioproducts, 2022):

Key:
TrXyn1 = molecular target: T1, TrXyn1 (Trichoderma reesei, UniProt P36218); test: birch wood xylan hydrolysis yield, reducing sugars by PAHBAH; format: biochemical; conditions: tested at 10, 100 and 1000 µg/ml; 1% xylan, 50 mM Na-citrate pH 5, 40 or 50 °C; concentration of the printed value not given
T1 construct: gene xyn1; natural single-domain GH11 enzyme, homologously produced and purified from T. reesei culture supernatant
T1 sequence (P36218 52-229): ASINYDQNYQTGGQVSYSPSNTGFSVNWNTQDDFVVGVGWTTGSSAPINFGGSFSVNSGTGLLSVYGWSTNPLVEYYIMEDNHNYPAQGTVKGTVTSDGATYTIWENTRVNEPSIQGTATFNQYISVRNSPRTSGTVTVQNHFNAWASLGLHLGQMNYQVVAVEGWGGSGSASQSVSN

TrXyn2 = molecular target: T2, TrXyn2 (Trichoderma reesei, UniProt P36217); test: as above; format: biochemical; conditions: tested at 10, 100 and 1000 µg/ml; 1% xylan, 50 mM Na-citrate pH 5, 40 or 50 °C
T2 construct: gene xyn2; natural single-domain GH11 enzyme, homologously produced and purified from T. reesei culture supernatant
T2 sequence (P36217 34-223): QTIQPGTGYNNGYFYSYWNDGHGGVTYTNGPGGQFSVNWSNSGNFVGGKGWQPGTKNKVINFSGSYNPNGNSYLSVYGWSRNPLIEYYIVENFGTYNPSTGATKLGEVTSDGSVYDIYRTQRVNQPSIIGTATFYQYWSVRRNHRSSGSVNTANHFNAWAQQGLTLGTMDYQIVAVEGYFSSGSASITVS

% reduction in the hydrolysis yield (TrXyn1): 50%
Compound: COc1cc(C=O)cc(OC)c1O [syringaldehyde]
reduction in hydrolysis yield (TrXyn2): only syringaldehyde showed a clear inhibitory effect on the hydrolysis for all the tested xylanases
